Test results from patent US6432655B1, “Method of obtaining compositions” (Synaptic Pharmaceutical Corporation, priority 1992, dated 2002).
Read-outs that look alike come from different tables or passages of the source.

Columns and labels:
[1] = molecular target: T1, human 5-HT4B receptor (clone hp78a) (Homo sapiens, UniProt P34969); test: [3H]5-HT radioligand binding to membranes of Cos-7 cells transiently expressing clone hp78a
T1 construct: The entire coding region of the human 5-HT4B receptor (1338 bp); expressed in transfected cells; host or cells: Cos-7 (monkey kidney), transient, plasmid hp78a/EXJ (pcEXV-5HT4B)

human 5-HT4B receptor [2] = molecular target: T2, human 5-HT4B receptor (Homo sapiens, UniProt P34969); test: cAMP formation in intact, transiently transfected Cos-7 cells; format: cell-based; settings: for activity at the clone hp78a receptor: compounds used to define the classical 5-HT4 receptor; for stimulation of basal cAMP release: 1 μM
T2 construct: The entire coding region of the human 5-HT4B receptor (1338 bp); expressed in transfected cells

human 5-HT4B receptor [3] = molecular target: T2, human 5-HT4B receptor; test: cell-based; format: cell-based; settings: for Emax: L-M(TK-), read-out: Emax* (% 5-HT RESPONSE)
[4] = system: untransfected or mock-transfected Cos-7 cells; test: cAMP in untransfected or mock-transfected Cos-7 cells; format: cell-based, monkey; settings: 1 μM
Description: Both the 5-HT-mediated inhibition and stimulation of cAMP levels were evaluated in these three intact cell preparations. Intracellular cAMP formation was measured by radioimmunoassay (cAMP Radioimmunoassay kit, Advanced Magnetics, Cambridge, Mass.) using methodology outlined by Zgombick et al. (1991). Radioactivity was quantitatied using a Packard COBRA Auto Gamma Counter (equipped with data reduction software).

[5] = molecular target: 5-HT receptor present in glial membranes; settings: Fillion et al., 1980, property shared with hp78a, cited from earlier work
5-HT4B receptor = molecular target: T3, 5-HT4B receptor (Rattus norvegicus, UniProt P32305); test: [3H]5-CT receptor autoradiography on rat brain sections; format: binding; settings: for effect on [3H]5-CT binding: masks: 100 nM PAPP and 160 nM (−)pindolol added together
T3 construct: from tissue; host or cells: rat brain cryostat sections (20 µm)

[6] = 5 nM [3H]5-HT, seven concentrations of competitor, 30 min at 37° C., mean ± S.E.M., 2-5 determinations, read-out: Ki (apparent dissociation constants for clone hp78a)
[7] = 30 nM competitor, 5 nM [3H]5-HT, 30 min at 37° C.
[8] = read-out: Ki (apparent dissociation constants for clone hp78a)
[9] = Ki (apparent dissociation constants for clone hp78a)
[10] = dissociation constant of antagonist, KB = [B]/(A′/A) − 1], read-out: KB
[11] = 100 nM competitor, 5 nM [3H]5-HT, 30 min at 37° C.
[12] = normalized to the 5-HT maximal response

T2 sequence (P34969 1-445 isoform P34969-2): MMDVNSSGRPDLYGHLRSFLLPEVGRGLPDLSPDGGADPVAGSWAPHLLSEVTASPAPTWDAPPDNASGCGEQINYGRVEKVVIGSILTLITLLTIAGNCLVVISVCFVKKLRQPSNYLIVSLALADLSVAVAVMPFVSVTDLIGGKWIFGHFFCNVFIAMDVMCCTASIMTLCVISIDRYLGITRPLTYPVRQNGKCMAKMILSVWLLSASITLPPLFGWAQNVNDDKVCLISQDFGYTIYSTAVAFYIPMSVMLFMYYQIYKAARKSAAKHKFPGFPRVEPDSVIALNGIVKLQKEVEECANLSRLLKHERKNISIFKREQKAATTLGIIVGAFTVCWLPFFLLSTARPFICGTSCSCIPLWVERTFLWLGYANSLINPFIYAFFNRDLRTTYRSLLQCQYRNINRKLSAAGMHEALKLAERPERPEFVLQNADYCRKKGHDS
T1 sequence (P34969 1-445 isoform P34969-2): as above
T3 sequence (P32305 whole entry): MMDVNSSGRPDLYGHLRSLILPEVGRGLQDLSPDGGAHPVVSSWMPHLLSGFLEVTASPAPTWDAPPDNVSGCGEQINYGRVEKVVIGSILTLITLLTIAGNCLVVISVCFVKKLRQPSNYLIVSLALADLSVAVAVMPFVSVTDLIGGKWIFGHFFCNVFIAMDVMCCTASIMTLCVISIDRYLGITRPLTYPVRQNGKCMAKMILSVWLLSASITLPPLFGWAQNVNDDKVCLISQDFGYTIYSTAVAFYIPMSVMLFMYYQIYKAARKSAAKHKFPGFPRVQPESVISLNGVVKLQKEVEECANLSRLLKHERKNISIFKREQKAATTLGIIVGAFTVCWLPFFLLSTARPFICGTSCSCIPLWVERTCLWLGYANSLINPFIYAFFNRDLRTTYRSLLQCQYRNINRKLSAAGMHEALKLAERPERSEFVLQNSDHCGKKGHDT

Nc1nc2c(ncn2[C@@H]2O[C@H](COP(=O)(O)OP(=O)(O)NP(=O)(O)O)[C@@H](O)[C@H]2O)c(=O)[nH]1 [Gpp(NH)p, 5′-guanylylimidodiphosphate]
reduction of high affinity [3H]5-HT binding [1]: 75%

O=C(CCCN1CCC2(CC1)C(=O)NCN2c1ccccc1)c1ccc(F)cc1 [Spiperone]
Ki [1, 6]: 110 ± 17 nM

CN1C[C@H](CNC(=O)OCc2ccccc2)C[C@@H]2c3cccc4c3c(cn4C)C[C@H]21 [Metergoline]
Ki [1, 6]: 6.4 ± 1.4 nM | antagonism of the 5-HT response (human 5-HT4B receptor [2]; 10 μM): almost completely | FOLD cAMP STIMULATION (human 5-HT4B receptor [2]; 10 μM drug, relative to basal levels): 0

CC(C)C[C@H]1C(=O)N2CCC[C@H]2[C@]2(O)O[C@](NC(=O)[C@@H]3C=C4c5cccc6[nH]c(Br)c(c56)C[C@H]4N(C)C3)(C(C)C)C(=O)N12 [Bromocriptine]
Kb (human 5-HT4B receptor [3]): 240 ± 10 nM | Emax (human 5-HT4B receptor [3]): 0%

NCCc1ccc(O)c(O)c1 [Dopamine]
PERCENT INHIBITION (displacement of specific [3H]5-HT binding) [1, 7]: 0

COc1cc(N)c(Cl)cc1C(=O)NC1CCN(CCCOc2ccc(F)cc2)CC1OC (stereo not shown) [cisapride]
activity at the clone hp78a receptor (human 5-HT4B receptor [2]): either poorly active or inactive

O=C1NCN(c2ccccc2)C12CCN(CC1COc3ccccc3O1)CC2 (stereo not shown) [Spiroxatrine]
PERCENT INHIBITION (displacement of specific [3H]5-HT binding) [1, 7]: 12

NC[C@H](O)c1ccc(O)c(O)c1 [Norepinephrine]
PERCENT INHIBITION (displacement of specific [3H]5-HT binding) [1, 7]: 0

COc1cc(N)c(Cl)cc1C(=O)NC1CN2CCC1CC2 (stereo not shown) [Zacopride]
Ki [1, 8]: > 5000 nM | activity at the clone hp78a receptor (human 5-HT4B receptor [2]): either poorly active or inactive

NCCc1c[nH]c2ccc(O)cc12 [5-HT, 5-Hydroxytryptamine]
increase in cAMP release over basal levels (human 5-HT4B receptor [2]): 20 fold | stimulation of basal cAMP release (human 5-HT4B receptor [2]): 7 fold | stimulation of intracellular cAMP accumulation (human 5-HT4B receptor [2]; coincubation of 1 μM FSK and 1 μM 5-HT): 75 fold | INTRINSIC ACTIVITY (human 5-HT4B receptor [3]): AGONIST (AGONIST indicates that the maximal response to the drug was at least 80% of the maximum response obtained with 5-HT) | effect on basal or FSK-stimulated adenylate cyclase activity [4]: no effect | EC50 ([5]; read-out: EC50 value for 5-HT stimulation of cAMP): 500 to 1000 nM

CC(C)NCC(O)COc1cccc2[nH]ccc12 (single isomer, unassigned; (-)) [(−)pindolol]
effect on [3H]5-CT binding (5-HT4B receptor): markedly reduced

CN1C[C@H](C(=O)N[C@]2(C)O[C@@]3(O)[C@@H]4CCCN4C(=O)[C@H](Cc4ccccc4)N3C2=O)C[C@@H]2c3cccc4[nH]cc(c34)C[C@H]21 [Dihydroergotamine]
Ki [1, 9]: 6.9 ± 0.9 nM | INTRINSIC ACTIVITY (human 5-HT4B receptor [3]): ANTAGONIST | Emax (human 5-HT4B receptor [3]): 0% | Kb (human 5-HT4B receptor [3]; [10]): 20 ± 4 nM

CN1C[C@H](C(=O)N[C@]2(C)O[C@@]3(O)[C@@H]4CCCN4C(=O)[C@H](Cc4ccccc4)N3C2=O)C=C2c3cccc4[nH]cc(c34)C[C@H]21 [Ergotamine]
Ki [1, 9]: 15 nM | Ki ([1]; Ki for clone hp78a): < 20 nM | effect on specific [3H]5-CT binding (5-HT4B receptor; 1 μM, 0.5 nM [3H]5-CT): completely eliminated

COc1ccc2[nH]cc(CCN)c2c1 [5-MeOT, 5-Methoxytryptamine]
agonist activity (human 5-HT4B receptor [2]): potent agonists | INTRINSIC ACTIVITY (human 5-HT4B receptor [3]): AGONIST (key: AGONIST indicates that the maximal response to the drug was at least 80% of the maximum response obtained with 5-HT) | functional character (human 5-HT4B receptor [3]): potent agonists | Emax (human 5-HT4B receptor [3]): 100 ± 5%

CCCN(CCC)CCc1c[nH]c2ccc(C(N)=O)cc12 [Dipropyl-5-carboxamidotryptamine]
Ki [1, 8]: 37 ± 21 nM | EC50 (human 5-HT4B receptor [3]): 2400 nM | Emax* (% 5-HT RESPONSE) (human 5-HT4B receptor [3]): 86 ± 12 % 5-HT RESPONSE | INTRINSIC ACTIVITY (human 5-HT4B receptor [3]): AGONIST (key: AGONIST indicates that the maximal response to the drug was at least 80% of the maximum response obtained with 5-HT)

Cc1nc2sccn2c(=O)c1CCN1CCC(=C(c2ccc(F)cc2)c2ccc(F)cc2)CC1 [Ritanserin]
Ki [1, 6]: 45 ± 10 nM

Nc1ccc(CCN2CCN(c3cccc(C(F)(F)F)c3)CC2)cc1 [PAPP]
PERCENT INHIBITION (displacement of specific [3H]5-HT binding) [1]: 21 | effect on [3H]5-CT binding (5-HT4B receptor): markedly reduced

NCCc1c[nH]c2ccc(OCc3ccccc3)cc12 [5-Benzyloxytryptamine]
Ki [1, 9]: 729 nM

NCCc1c[nH]cn1 [Histamine]
PERCENT INHIBITION (displacement of specific [3H]5-HT binding) [1, 11]: 10

CNS(=O)(=O)Cc1ccc2[nH]cc(CCN(C)C)c2c1 [Sumatriptan]
Ki [1, 8]: 951 ± 118 nM

CC(C)NCC(O)COc1cccc2[nH]ccc12 (racemic) [Pindolol]
Ki [1, 8]: > 5000 nM

CN1C[C@@H](NS(=O)(=O)N(C)C)C[C@@H]2c3cccc4c3c(cn4C)C[C@H]21 [Mesulergine]
Emax (human 5-HT4B receptor [3]): 0% | Kb (human 5-HT4B receptor [3]; [10]): 20 ± 1 nM

c1ccc2c(N3CCNCC3)cccc2c1 [1-Naphthylpiperazine]
Ki [1, 8]: 83 ± 19 nM

CCN(CC)C(=O)[C@@H]1C=C2c3cccc4[nH]c(Br)c(c34)C[C@H]2N(C)C1 [2-Bromo-LSD]
Ki [1, 8]: 30 ± 10 nM | % INHIBITION OF 5-HT RESPONSE (human 5-HT4B receptor [2]): 95 ± 4.5% | FOLD cAMP STIMULATION (human 5-HT4B receptor [2]; 1 μM drug, relative to basal levels): 0 | INTRINSIC ACTIVITY (human 5-HT4B receptor [3]): ANTAGONIST | Kb (human 5-HT4B receptor [3]; [10]): 12 ± 3 nM | Emax* (% 5-HT RESPONSE) (human 5-HT4B receptor [3]; [12]): 0 % 5-HT RESPONSE | antagonism [5]: Potent antagonism

CCCN(CCC)C1CCc2cccc(O)c2C1 (stereo not shown)
stimulation of basal cAMP release (human 5-HT4B receptor [2]): about 2 fold | INTRINSIC ACTIVITY (human 5-HT4B receptor [3]): PARTIAL AGONIST | functional character (human 5-HT4B receptor [3]): weak agonist | Emax* (% 5-HT RESPONSE) (human 5-HT4B receptor [3]; [12]): 51 ± 14 % 5-HT RESPONSE

COC(=O)[C@@H]1[C@H]2C[C@H]3c4[nH]c5ccccc5c4CCN3C[C@@H]2CC[C@@H]1O [Yohimbine]
Ki [1, 8]: 2850 ± 354 nM

Cc1cc(C(C)(C)C)c(O)c(C)c1CC1=NCCN1 [Oxymetazoline]
PERCENT INHIBITION (displacement of specific [3H]5-HT binding) ([1]; 10 nM competitor, 5 nM [3H]5-HT, 30 min at 37° C.): 6

CN1[C@@H]2CC[C@H]1C[C@@H](OC(=O)c1c[nH]c3ccccc13)C2 [ICS 203930]
PERCENT INHIBITION (displacement of specific [3H]5-HT binding) ([1]; 1000 nM competitor, 5 nM [3H]5-HT, 30 min at 37° C.): 10 | inhibitory effect on the 5-HT response (human 5-HT4B receptor [2]; 100 μM): weak inhibitory effect | % INHIBITION OF 5-HT RESPONSE (human 5-HT4B receptor [2]; 100 μM drug, cAMP response to 1 μM 5-HT): 36 ± 3.0% | FOLD cAMP STIMULATION (human 5-HT4B receptor [2]; 100 μM drug, relative to basal levels): 0 | activity at the clone hp78a receptor (human 5-HT4B receptor [2]): either poorly active or inactive

CC(N)Cc1c[nH]c2ccc(O)cc12 (racemic) [α-Methyl-5-hydroxy-tryptamine]
Ki [1, 9]: 509 nM

CC[C@@H](CO)NC(=O)[C@@H]1C=C2c3cccc4c3c(cn4C)C[C@H]2N(C)C1 [Methysergide]
Ki [1, 8]: 83 ± 5 nM | FOLD cAMP STIMULATION (human 5-HT4B receptor [2]): 1.7 ± 0.43 | antagonism of the 5-HT response (human 5-HT4B receptor [2]): almost completely | antagonism [5]: Potent antagonism

CC(C)NCC(O)COc1cccc2ccccc12 (stereo not shown) [Propranolol]
PERCENT INHIBITION (displacement of specific [3H]5-HT binding) [1, 11]: 0

CN(C)CCc1c[nH]c2ccc(O)cc12 [Bufotenin]
Ki [1, 9]: 26 nM

CCN(CC)C(=O)[C@@H]1C=C2c3cccc4[nH]cc(c34)C[C@H]2N(C)C1 [d-LSD]
PERCENT INHIBITION (displacement of specific [3H]5-HT binding) [1]: 77 | INTRINSIC ACTIVITY (human 5-HT4B receptor [3]): ANTAGONIST | Emax* (% 5-HT RESPONSE) (human 5-HT4B receptor [3]; [12]): 0 % 5-HT RESPONSE

COc1cc(CC(C)N)c(OC)cc1I (stereo not shown) [DOI]
PERCENT INHIBITION (displacement of specific [3H]5-HT binding) [1]: 20

c1ccc2nc(N3CCNCC3)ccc2c1 [Quipazine]
PERCENT INHIBITION (displacement of specific [3H]5-HT binding) [1, 11]: 3

O=C(c1ccc(F)cc1)C1CCN(CCn2c(=O)[nH]c3ccccc3c2=O)CC1 [Ketanserin]
Ki [1, 6]: 1330 ± 241 nM
